Columns and labels:
[1] = target: T1, human recombinant A1-adenosine receptors (Homo sapiens, UniProt P30542); assay: Measurement of cAMP enhancement in CHO cells (allosteric enhancement, cAMP content by radioimmunoassay); type: cell-based; settings: CHO:huA1 cells, forskolin 1 μM, rolipram 20 μM, CPA 0.01 nM, 6 min at 36° C., control 100%
T1 construct: expressed in transfected cells; host or cells: CHO (Chinese hamster ovary) cells, CHO:huA1, under G-418 selection
T1 sequence (P30542 1-326): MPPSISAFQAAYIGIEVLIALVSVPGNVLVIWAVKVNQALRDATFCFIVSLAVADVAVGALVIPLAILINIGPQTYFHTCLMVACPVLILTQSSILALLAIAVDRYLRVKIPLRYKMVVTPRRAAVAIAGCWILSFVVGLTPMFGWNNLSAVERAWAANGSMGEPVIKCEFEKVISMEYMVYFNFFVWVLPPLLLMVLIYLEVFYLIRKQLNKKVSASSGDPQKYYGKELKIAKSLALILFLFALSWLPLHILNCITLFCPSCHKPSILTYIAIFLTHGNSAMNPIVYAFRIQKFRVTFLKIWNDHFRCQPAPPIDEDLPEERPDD
Experimental: Chinese hamster ovary cells expressing human recombinant A1-adenosine receptors (CHO:huA1 cells) at a density of approximately 8000 fmol/mg protein were prepared as previously described (Kollias-Baker et al., (1997), J. Pharmacol. Exp. Ther. 281: 761-768) and aliquots of the cells at low passage numbers were frozen and stored in liquid nitrogen. When compounds were tested, an aliquot of CHO:huA1 cells were rapidly thawed after removal from liquid nitrogen, then grown in Ham's F12 culture medium with 10% fetal bovine serum and 0.5 mg/mL of antibiotic G-418 (Shryock, Ozeck, and Belardinelli (1998), Mol. Pharmacol. 53: 886-893). Cells were passaged thrice weekly. Aliquots of cells were placed into 12-well plates with culture medium, serum, and antibiotic for 48 hours, by which time the cells had grown to a confluent monolayer.
Allosteric enhancement was measured as the action of a test compound at different concentrations (0.01, 0.1, 1 and 10 μM) to reduce the cAMP content of CHO:huA1 cells. To initiate an experiment, growth medium was removed from the 12-well plates and cells were washed once with warm Hanks' buffered saline. The wash solution was then removed and replaced with fresh Hanks' solution containing forskolin (1 μM), rolipram (20 μM), N^6-cyclopentyladenosine (CPA, 0.01 nM), adenosine deaminase (2 U/mL), and the test compound. Forskolin was used to stimulate the activity of adenylyl cyclase, rolipram to inhibit cAMP phosphodiesterase, adenosine deaminase to degrade endogenous adenosine, and CPA to cause a small increase of the number of activated adenosine receptors. After 6 min of incubation at 36° C. in the presence of test compound, the incubation solution was removed and hydrochloric acid (final concentration 50 mM) was added to terminate drug action. The content of cAMP in acidified extracts of cells was determined by radioimmunoassay as previously described (Kollias-Baker et al., (1997), J. Pharmacol. Exp. Ther. 281: 761-768). Because the magnitude of the effects of allosteric enhancers on CHO:huA1 cells changed subtly with passage number and differed slightly among different aliquots of cells, the actions of the test compounds and the action of a reference compound (PD 81,723) were assessed in each experiment. The effect of each test compound on cAMP content is presented in the accompanying table as a percentage of the value of cAMP content in the absence of drug (control, 100%). Each value is a mean±standard error of 6 determinations in each of the number of experiments indicated in the “n” column of the table.

Structure (SMILES) | melting point [°C] | Change in cAMP Content from Control (Mean ± SEM) ([1]; 0.01 μM test compound) [%] | Change in cAMP Content from Control (Mean ± SEM) ([1]; 0.1 μM test compound) [%] | Change in cAMP Content from Control (Mean ± SEM) ([1]; 1 μM test compound) [%] | Change in cAMP Content from Control (Mean ± SEM) ([1]; 10 μM test compound) [%]
CC(=O)Nc1scc2c1C(=O)c1ccc(Cl)cc1-2 [Example 23, 1-Acetylamino-5-chloro-2-thia-cyclopenta[a]inden-8-one] |  | −7 ± 2 | 9 ± 9 | −16 ± 3 | −42 ± 1
Nc1scc2c1C(=O)c1ccc(Cl)c(Cl)c1-2 [Example 25, 1-Amino-4,5-dichloro-2-thia-cyclopenta[a]inden-8-one] |  | 0 ± 5 | −9 ± 8 | −46 ± 2 | −75 ± 3
Nc1scc2c1C(=O)c1c(Cl)cccc1C21SCCCS1 [Example 27, 3-Amino-5-chloro-9-spiro(1,3-dithian-2-yl)-9H-naphtho[2,3-c]thiophene-4-one] |  | 6 ± 3 | 8 ± 5 | 8 ± 9 | 0 ± 9
Cc1sc(N)c(C(=O)c2cccc(C(F)(F)F)c2)c1C [PD 81,72, reference compound] |  | 4 ± 2 | 8 ± 3 | −32 ± 2 | −75 ± 1
Nc1scc2c1C(O)c1ccc(Cl)cc1-2 (stereo not shown) [Example 22, 1-Amino-5-chloro-8-hydroxy-2-thia-cyclopenta[a]indene] |  | 4 ± 2 | −1 ± 8 | 0 ± 7 | −17 ± 2
Nc1sc2c3c1C(=O)c1ccc(Cl)cc1C3CN(Cc1ccccc1)C2 (stereo not shown) [Example 26, 5-Amino-2-benzyl-9-chloro-1,2,3,10b-tetrahydro-6H-benzo[h]thieno[2,3,4-de]isoquinolin-6-one] |  | −4 ± 1 | −1 ± 7 | 15 ± 6 | 25 ± 7

Results, then the compound that gave them:

melting point [°C] | Change in cAMP Content from Control (Mean ± SEM) ([1]; 0.01 μM test compound) [%] | Change in cAMP Content from Control (Mean ± SEM) ([1]; 0.1 μM test compound) [%] | Change in cAMP Content from Control (Mean ± SEM) ([1]; 1 μM test compound) [%] | Change in cAMP Content from Control (Mean ± SEM) ([1]; 10 μM test compound) [%] | Structure (SMILES)
183 to 185 |  |  |  |  | Nc1scc2c1C(=O)c1c(Cl)cccc1-2 [Example 4, 1-Amino-7-chloro-2-thia-cyclopenta[a]inden-8-one]
254 to 255 |  |  |  |  | Nc1scc2c1C(=O)c1c-2ccc(Cl)c1Cl [Example 6, 1-Amino-6,7-dichloro-2-thia-cyclopenta[a]inden-8-one]
201 to 202 |  |  |  |  | Nc1scc2c1C(=O)c1ccc(Cl)cc1-2 [Example 5, 1-Amino-5-chloro-2-thia-cyclopenta[a]inden-8-one]
196 to 198 |  |  |  |  | Cc1cccc2c1C(=O)c1c-2csc1N [Example 2, 1-Amino-7-methyl-2-thia-cyclopenta[a]inden-8-one]
 | 5 ± 3 | 5 ± 3 | −1 ± 1 | −23 ± 6 | Nc1ccc2c(c1)C(=O)c1c-2csc1N [Example 24, 1,6-Diamino-2-thia-cyclopenta[a]inden-8-one]
157 to 159 |  |  |  |  | Cc1ccc2c(c1)-c1csc(N)c1C2=O [Example 3, 1-Amino-5-methyl-2-thia-cyclopenta[a]inden-8-one]
 | −5 ± 4 | −15 ± 2 | 4 ± 5 | −16 ± 3 | Nc1scc2c1C(=O)c1cc(Br)ccc1-2 [Example 21, 1-Amino-6-bromo-2-thia-cyclopenta[a]inden-8-one]
